Molecular target: T1, MeCP2-TBL1 interaction (MeCP2-SmBiT / TBL1-LgBiT) (Mus musculus, UniProt Q9QXE7)
T1 construct: expressed in transfected cells; crude lysate used as a cell-free assay
T1 sequence (Q9QXE7 166-527): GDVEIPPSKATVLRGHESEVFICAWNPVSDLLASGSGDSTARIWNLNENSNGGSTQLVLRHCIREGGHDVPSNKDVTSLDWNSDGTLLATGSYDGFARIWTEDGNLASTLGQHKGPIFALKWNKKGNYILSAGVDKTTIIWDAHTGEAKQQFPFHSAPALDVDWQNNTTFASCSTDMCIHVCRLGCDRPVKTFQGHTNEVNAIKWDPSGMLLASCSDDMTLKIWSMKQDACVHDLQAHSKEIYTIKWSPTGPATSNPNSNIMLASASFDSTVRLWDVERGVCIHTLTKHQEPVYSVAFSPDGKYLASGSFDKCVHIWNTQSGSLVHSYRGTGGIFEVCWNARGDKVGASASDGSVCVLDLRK
Assay: MeCP2-TBL1 NanoLuc luciferase complementation assay (cell-free, extracts of transfected HEK293 cells);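 as to Inhibition percent: each compound tested at 20 µM final concentration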
Assay type: binding, human
Conditions: ApexBio FDA-approved Drug Library screen, 20 µM
In short: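 Cell-free split NanoLuc: lysate of HEK293 cells co-expressing the MeCP2 C-terminal half-SmBiT and TBL1 WD domain-LgBiT, mixed 1:1 with furimazine. After 30 min at room temperature, luminescence was plate-median normalized.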

Row | Compound | Inh (MeCP2-TBL1)
1 | O=C1C(Cl)=C(N2CCOCC2)C(=O)N1c1ccc(Cl)c(Cl)c1 [RI-1, reference compound] | 13.6055

Same assay, conditions: primary screen of Asinex library, single well per compound

Row | Compound | Inhibition percent
2 | Cc1nccn1Cc1ccccc1C(=O)N1CCCC(Cc2cccc3ccncc23)CC1 (centres unmarked) [BDH_32339307] | -0.56
3 | Cc1nccn1Cc1ccccc1C(=O)N1C[C@@H](c2cccc(F)c2)[C@@]2(CCCCC(=O)N2)C1 [BDH_32372714] | -2.77
4 | Cc1nn(C)cc1C(=O)N1CCCCC1c1ncccc1C(=O)NCc1ccccc1 (centres unmarked) [BDE_24469941] | -0.10
5 | Cc1cc(Oc2ccc(F)cc2)nc(C2CCCCN2C(=O)c2cccc(-c3cncnc3)n2)n1 (centres unmarked) [BDH_32364853] | -0.96
6 | O=C(COc1ncnc2ccccc12)N1CCC[C@@]2(C[C@@H](Oc3ccc(F)c(Cl)c3)CO2)C1 [BDH_33516387] | 6.08
7 | COc1ccc(C(=O)N2CCCC(Cc3ccccn3)C2)cc1NCc1cccnc1 (centres unmarked) [BDH_32341951] | -2.98
8 | COc1ccccc1Oc1cccc(C2CCN(C(=O)c3ccc(-c4cncnc4)nc3)CC2)n1 [BDH_32370065] | -2.43
9 | COCCC(=O)N[C@]1(C)C[C@@H](c2ccc(Cl)cc2)O[C@@H](c2cc(Br)ccc2O)C1 [BDH_34036884] | 5.22
10 | C[C@]12C[C@@H](Cc3ccccc3)N(C(=O)c3ccc(OCCN4CCCCC4)cc3)[C@H]1CCCC(=O)N2 [BDH_33629014] | -1.82
11 | COCCOc1cccc(CN2[C@H](Cc3ccccc3F)C[C@@H]3NC(=O)CCCC[C@H]32)c1 [BDG_23917768] | -0.22

Same assay, conditions: primary screen of the Asinex library, sheet "Sargen output Asinex library", one well per compound

Row | Compound | Inhibition percent [%]
12 | CCn1cc(NC(=O)CN2[C@H](Cc3ccccc3)C[C@]3(C)NC(=O)CCC[C@H]23)c(C)n1 [BDH_33623813] | -1.65
13 | O=C(NCCC1CCCCN1C(=O)c1ccnc(Oc2cccc(F)c2)c1)c1ccccc1 (centres unmarked) [BDH_32356851] | -4.31
14 | O=C(c1ccccn1)N1CCCC1c1cc(CCOc2cccc(C(F)(F)F)c2)[nH]n1 (centres unmarked) [BDE_27113075] | -1.96
15 | CC(=O)Nc1cccc([C@@H]2CN(Cc3ccc4c(c3)n(C)c(=O)n4C)C[C@]23CCCCC(=O)N3)c1 [BDD_25153608] | -1.53
16 | NC(=O)c1cccc(-c2nccnc2C2CCCN(CCCc3ccccc3)C2)c1 (centres unmarked) [BDD_27892119] | -1.40
17 | COc1ccc([C@@H]2C[C@]3(C)NC(=O)CCC[C@@H]3N2CC2(O)CCN(c3cccc(OC)c3)CC2)cc1 [BDH_33611075] | 1.71
18 | Cc1cc(C2CCCN(Cc3ccc(-c4ccccc4C(=O)O)o3)C2)ccn1 (centres unmarked) [BDE_30686588] | 6.28
19 | O=C(c1cccc(-n2cnnc2)c1)N1CCOCC(Cc2cccc3occc23)C1 (centres unmarked) [BDH_32340409] | -8.70
20 | COc1ccc2c(c1)[C@H]1OCC3(CCN(Cc4cnccn4)CC3)C[C@@H]1C(C)(C)O2 [BDG_33690689] | -2.69
21 | O=C1COc2ccccc2CCCC[C@@H]2CN(C(=O)CCCn3cccn3)CC[C@H]2N1 [BDH_33762630] | 0.76
22 | CC(C)C[C@H](NC(=O)OCc1ccccc1)C(=O)N1CCC2(CC1)CO[C@@H]([C@@]1(C)CC[C@H](O)C(C)(C)O1)C2 [BDH_33767587] | -2.43
23 | CC(=O)Nc1ccc(NC(=O)CN2[C@H](Cc3ccccc3)C[C@]3(C)NC(=O)CCC[C@H]23)c(Cl)c1 [BDH_33623952] | 1.80
24 | Cn1cc(-c2cccc(C(=O)N3CCC(c4cccc(Cc5ccc(F)cc5)n4)CC3)n2)cn1 [BDH_32365359] | 2.72
25 | CC(C)c1nccn1CCC(=O)N1[C@H](Cc2ccccc2)C[C@]2(C)NC(=O)CCC[C@H]12 [BDH_33632337] | 1.15
26 | CN1CCC(Cc2cccc(F)c2)(C(=O)N2CCCC(Cc3cccc4ncccc34)C2)CC1 (centres unmarked) [BDH_32354496] | -4.55
27 | Cc1ccc(NC(=O)c2cccc(C3CCCN3C(=O)CCCN3Cc4ccccc4C3)n2)nc1 (centres unmarked) [BDH_33628747] | -0.70

Same assay, conditions: primary screen of the Asinex library, sheet "Sargen output Asinex library", one well per compound, Batch Ref. 1

Row | Compound | Inhibition percent [%]
28 | O=C1CCCN1CCOc1cccc(C(=O)N2C3CCC2CC(Cc2cnc4[nH]ccc4c2)C3)c1 (centres unmarked) [BDH_32367285] | -0.20
29 | COc1ccc(Cc2ccc(C3CCCN3C(=O)CCn3ncc4ccccc43)nc2)cc1 (centres unmarked) [BDE_25650039] | 3.10
30 | CC(C)(C)OC(=O)Nc1cc(-c2c[nH]nc2C2CCCCN2C(=O)OC(C)(C)C)ccn1 (centres unmarked) [BDD_27845058] | 10.59
31 | CC1(C)Oc2ccccc2[C@@H]2O[C@@H]3CCN(C(=O)c4cccc(Cn5ccnc5)c4)C[C@@H]3C[C@H]21 [BDG_34133919] | 1.73
32 | C[C@]12C[C@@H](Cc3ccccc3)N(C(=O)CCN3C(=O)CCCC3=O)[C@H]1CCCC(=O)N2 [BDH_33628122] | 1.89
33 | Cc1nc2c(c(Nc3ccccn3)n1)CCN(S(=O)(=O)c1cccc(C(F)(F)F)c1)CC2 [BDD_27755359] | 6.69
34 | Cc1cccc(Nc2ccc(C3CCCN3C(=O)COc3ccc4c(c3)OCCO4)nc2)n1 (centres unmarked) [BDD_25671481] | 3.48
35 | COc1ccccc1Cc1ccc(C(=O)N2CCCC2c2cncc(-c3nccn3C)n2)cn1 (centres unmarked) [BDH_33521295] | -3.44
36 | COc1ccccc1CNC(=O)c1cn(C)nc1CC1CCN(C(=O)c2cccnc2)CC1 [BDD_26909786] | -3.87
37 | Cc1nc2c(c(Nc3ccccn3)n1)CCN(C(=O)C1CCCCN1C(=O)OC(C)(C)C)C2 (centres unmarked) [BDE_27755327] | -1.68
38 | COc1cccc([C@@H]2C[C@]3(C)NC(=O)CCCC[C@@H]3N2CC(=O)Nc2cccc(C)c2C)c1 [BDH_33621286] | 2.19
39 | O=C1NCCNC(=O)C2(C/C=C/COc3ccccc31)CCN(C(=O)CCc1cccs1)CC2 [BDH_33701979] | 4.94
40 | O=C(COc1ncnc2ccccc12)N1CCCCC1c1ncc(Cc2ccc(F)cc2)o1 (centres unmarked) [BDE_33513539] | -1.92
41 | O=C(NCCC1CCCCN1C(=O)CCN1C(=O)COc2ccc(Cl)cc21)c1ccccc1 (centres unmarked) [BDH_33629495] | -0.39
42 | Cc1cnn(CC(=O)N2CCC3(C/C=C/CCOc4ccccc4C(=O)NCCCNC3=O)CC2)c1 [BDH_33775476] | 1.29
43 | COc1ccc(C)c(NC(=O)CN2CC[C@@]3(NC(C)=O)CN(C(C)=O)[C@H](c4ccccc4)[C@H]3C2)c1 [BDH_33618460] | 1.43
44 | Cn1c(=O)n(C)c2cc(CCC(=O)N3CCCCC3CCNC(=O)c3ccccc3)ccc21 (centres unmarked) [BDH_33628839] | -0.76
45 | Oc1cccc2c1OC1(CCN(Cc3ccccc3)CC1)[C@H]1CCCO[C@H]21 [BDG_33900148] | 0.73
46 | CC(=O)N1CCC(Cc2cc(-c3ccccc3)no2)(C(=O)Nc2ccccc2OC(C)C)C1 (centres unmarked) [BDF_23076638] | 1.76
47 | COc1ccccc1-c1cccc(CN2C[C@@H](c3cc(F)cc(F)c3)[C@@]3(CCCCC(=O)N3)C2)c1 [BDD_23570836] | 1.23
48 | COc1ccc([C@@H]2C[C@]3(C)NC(=O)CCC[C@@H]3N2CC(=O)NCc2ccc3[nH]c(C)c(C)c3c2)cc1 [BDH_33623525] | -0.10
49 | C[C@@]12C[C@H](c3ccccc3)N(C(=O)CCc3c[nH]c4ccccc34)[C@@H]1CCC[C@@H](O)[C@H]2O [BDH_33903568] | 3.00
50 | Cn1cc(CC(=O)N2C[C@@H](c3cccc(F)c3)[C@@]3(CCCCC(=O)N3)C2)c2ccccc21 [BDH_32306274] | 1.56

From PMC9995496, “A screen for MeCP2-TBL1 interaction inhibitors using a luminescence-based assay” (Scientific Reports, 2023)
